Experimental data: patent US8173821B2, “Serotonin and norepinephrine reuptake inhibitor” (Eli Lilly and Company, priority 2009, dated 2012)

How the values were obtained:
serotonin transporter = target: T1, serotonin transporter (Rattus norvegicus, UniProt P31652); assay: In vivo transporter occupancy assay; details: 1 hr. post dosing
T1 construct: from tissue; host or cells: rat frontal cortex, in vivo
Experimental: Male Sprague-Dawley rats weighing 240-280 gm in groups of three are used to determine serotonin transporter occupancy. Animals are fasted at least 12 hr. before the start of each experiment. Animals are orally administered vehicle or 0.10, 0.33, 1.00, 3.33 or 10.00 mg/kg doses of test compound in 4% Glucose in 25 mM Phosphate buffer, (pH=3.0) containing 0.1, 0.33, 1, 3.33, or 10% CAPTISOL™ (concentration of CAPTISOL™ (%)=dose of test compound (mg/kg)). […] After an additional 40 min., rats are sacrificed via cervical dislocation, and a portion of the frontal cortex is removed and placed on dry ice. An additional control group of three rats is dosed with paroxetine maleate at 12 mg/kg, i.v., followed by N,N-dimethyl-2-(2-amino-4-cyanophenylthio)-benzylamine (10 μg/kg) 1 hr. later.
Tissues are allowed to thaw and then four volumes (w/v) of acetonitrile containing 0.1% formic acid is added. Samples are homogenized using an ultrasonic dismembrator probe and centrifuged for 16 min. at 14,000×g. One volume of the supernatant is added to 3 volumes of water in an autosampler vial and vortexed. Separation is achieved with a Zorbax C18 HPLC column and a mobile phase gradient of from 20% to 90% acetonitrile/water, each with 0.1% formic acid. The total HPLC run time is 3.5 min with an additional 2.0 min re-equilibration time. An API4000 triple quadrupole mass spectrometer (Applied Biosystems, Foster City, Calif., USA) operating in MRM mode is used for detection. The ion transition monitored is 284.1/239.1 m/z for N,N-dimethyl-2-(2-amino-4-cyanophenylthio)-benzylamine.
The level of N,N-dimethyl-2-(2-amino-4-cyanophenylthio)-benzylamine (tracer) in the cortex of vehicle-pretreated animals represents the sum of nonspecific and specific binding and is assigned the value of 0% occupancy (all receptors available to the tracer). The lower level of tracer in animals pretreated with the very high intravenous dose of paroxetine maleate, the positive control group, represents the nonspecific binding and is assigned the value of 100% occupancy (no receptors available to the tracer). Levels of tracer in the cortex following oral administration of test compound are interpolated linearly between these two extremes in order to determine the percent serotonin transporter occupancy. Data are expressed as means±SEM (n=3/group) calculated using Prism version 3.0 (GraphPad Software Inc., San Diego, Calif., USA). The ED80 values are obtained by fitting the data to a sigmoidal curve using nonlinear regression.

[1] = target: T2, norepinephrine transporter (Rattus norvegicus, UniProt Q63380); assay: Alpha MMT: monoamine depletion inhibition assay; format: in vivo; details: rat cortex
T2 construct: from tissue; host or cells: rat cortex, in vivo
Description: DL-Para-chloroamphetamine (PCA) is transported into serotonergic neurons via the neuronal transporter and produces a long-lasting depletion of rat brain serotonin (5-HT) concentrations. Alpha-methyl-m-tyrosine (α-MMT) is a noradrenergic depleting agent that is β-hydroxylated to metaraminol in vivo and actively transported into norepinephrine (NE) neurons via the neuronal transporter producing a decrease in NE levels in rat brain. The depletion of rat brain 5-HT levels by PCA and rat cortical NE concentrations by α-MMT is blocked by agents with 5-HT and NE reuptake inhibitor activity. Compounds of the present invention may be assayed for their activity to prevent the depletion of rat brain 5-HT concentrations by PCA and the depletion of rat cortical NE concentrations by a-MMT in fed and fasted rats in vivo using the following methods.
Male Sprague Dawley rats weighing 160-180 grams are fasted overnight or allowed food ad libidum. […] All compounds are administered at 1 mL/kg. Animals are sacrificed 2 hr. after PCA or α-MMT administration. Tissues are dissected, frozen on dry ice and stored at −70° prior to analysis. […] The data are collected using an EZChrom™ chromatography data system (Scientific Software, San Ramon, Calif.) which calculates peak heights and sample concentrations. Analysis of variance, followed by Tukey's Honestly Significant Difference test post hoc, identifies significant differences between treatment groups (P≦0.05). Doses that antagonized the PCA- or α-MMT-induced depletion of monoamines by 50 percent, (ED50's) are calculated using a best-fit linear regression analysis.

[2] = target: T3, Human norepinephrine (NET) transporter (Homo sapiens, UniProt P23975); assay: In vitro inhibitor activity assay (3H-norepinephrine uptake); format: cell-based; details: transfected HEK293 cells, read-out: IC50 hNET (norepinephrine reuptake)
T3 construct: expressed in transfected cells; host or cells: HEK293
Experimental: (§1) Human serotonin (SERT) or norepinephrine (NET) transporters are cloned into a pcDNA3 vector and stably transfected into HEK293 cells. Both assays are modified from methods described by Eshleman et al., J. Pharmacol. Exptl Ther., 289, 877-885 (1999)) and Wall et al., Mol. Pharmacol., 47, 544-550 (1995). Cells are grown on poly-D-lysine coated flasks or 96-well plates in D-MEM/F-12 3:1 (3 part of Dulbecco's Modified Eagle Medium in 1 part of Nutrient Mix F-12 medium) containing 5% fetal bovine serum, 250 μg/mL geneticin, and 20 mM Hepes. Cells are plated at 40,000 cells per well in 200 μL of medium and incubated for 18-24 hours at 37° C. prior to the assay. The assay uptake buffer consists of Krebs-Ringer bicarbonate stock supplemented with 1.26% sodium bicarbonate, 20 mM HEPES, and 100 μM each of pargyline and ascorbic acid. Following a 30 minute pre-incubation with the compound or indatraline (as a positive control), ^3H-serotonin or ^3H-norepinephrine is added for 1 min. and 50 sec. The ^3H-substrate is then removed, and the cells washed 4× with 100 μL of cold uptake buffer using multimek. […] Microscint™ 40 is added to each well and the radioactivity is quantitated for 1 min. per well. Results are analyzed as IC50 values using a four-parameter logistic curve fitting program (ActivityBase v5.3.1.22).

[3] = target: T4, Human serotonin transporter (SERT) (Homo sapiens, UniProt P31645); assay: In vitro transporter affinity assay (SPA radioligand binding), SERT; details: membranes of transfected HEK293 cells, 3H-citalopram; read-out: Ki hSERT
T4 construct: expressed in transfected cells; host or cells: HEK293 (membrane stocks)
Experimental: (§2) Human serotonin transporter (SERT), norepinephrine transporter (NET), or dopamine transporter (DAT) are cloned into a pcDNA3 vector and stably transfected into HEK293 cells. […] Fluoxetine (100 μM) is used to determine non-specific binding, and venlafaxine is used as a positive control. NET membranes are used at a concentration of 8 μg/well in assay buffer containing 50 mM Tris, 300 mM NaCl, and 5 mM KCl (pH 7.4). ^3H-Nisoxetine is used as the tracer, 100 μM desipramine serves as a measure of non-specific binding, and nisoxetine is used as the positive control. For DAT binding assays, the assay buffer is the same as for SERT, membranes are used at 20 μg/well, 100 μM nomifensine is used to determine non-specific binding, ^3H-WIN 35428 (Perkin Elmer) serves as the radiotracer, and nomifensine is used as the positive control. In all cases, 0.5 mg/well of wheat-germ agglutinin scintillation proximity assay beads (WGA-SPA, GE Health Sciences) are used to capture the membranes, and plates are incubated for 3 hours at room temperature. Radioactivity is measured and Ki values calculated using a four-parameter logistic curve fitting program (ActivityBase v5.3.1.22).

[4] = target: T5, Human serotonin (SERT) transporter (Homo sapiens, UniProt P31645); assay: In vitro inhibitor activity assay (3H-serotonin uptake); format: cell-based; details: transfected HEK293 cells, read-out: IC50 hSERT (serotonin reuptake)
T5 construct: expressed in transfected cells; host or cells: HEK293
Experimental: as §1

Formalin induced pain = assay: Manual formalin test; format: in vivo; details: rat
Experimental: The manual formalin test is performed in custom-made Plexiglas boxes approx. 25 cm×25 cm×20 cm in size. A mirror placed at the back of the cage allows the unhindered observation of the formalin injected paw. Rats (Charles River (CRL) Sprague Dawley (SD)) are placed individually in the cubicles at least 30 min. prior to the experiment. All testing is conducted between 08:00 and 14:00 h and the testing room temperature is maintained at 21-23° C. Peripherally administered test compounds are dosed at varying times before the formalin challenge. Formalin (50 μL of a 5% solution in saline) is injected subcutaneously into the dorsal lateral surface of the right hind paw with a 27 gauge needle. Observation starts immediately after the formalin injection. Formalin induced pain is quantified by recording the number of seconds each licking event lasts in 5 min. intervals. The pain scoring is measured for 50 min. after the formalin injection. Two phases of pain behavior are observed as previously described (Wheeler-Aceto, H., Porreca, F. and Cowan, A., The rat paw formalin test: comparison of noxious agents, Pain 40 (1990) 229-238.). The early phase starts immediately after the formalin injection and lasts approximately 5 min., followed by the late phase that starts between minutes 10-15 with a maximum response typically observed around 25-35 min. after the formalin injection. After the 50 min. observation period, animals are sacrificed with CO2.
Of the different scoring parameters reported for the formalin test, the total time spent licking and biting the injected paw is considered to be most relevant. (Abbott et al., The formalin test: scoring properties of the first and second phases of the pain response in rats, Pain 60 (1995) 91-102; Coderre et al., The formalin test: a validation of the weighted-scores method of the behavioral pain rating, Pain 54 (1993) 43-50).) The early phase score is the sum of time spent licking (seconds) from time 0 to 5 min. The late phase score is obtained by adding the total number of seconds spent licking from minute 16 to min. 40 of the observation period. Data are presented as means with standard errors of means (±SEM). Data is evaluated by one-way analysis of variance (ANOVA) and the appropriate contrasts analyzed by Dunnett “t′ test for two sided comparisons. Differences are considered to be significant if the P-value is less than 0.05. (Abbott, supra.; Coderre, supra.; and Wheeler-Aceto, supra.)

[5] = target: T6, Human dopamine transporter (DAT) (Homo sapiens, UniProt Q01959); assay: In vitro transporter affinity assay (SPA radioligand binding), DAT; details: membranes of transfected HEK293 cells, 3H-WIN 35428; read-out: Ki hDAT
T6 construct: expressed in transfected cells; host or cells: HEK293 (membrane stocks)
Experimental: as §2

[6] = target: T7, Human norepinephrine transporter (NET) (Homo sapiens, UniProt P23975); assay: In vitro transporter affinity assay (SPA radioligand binding), NET; details: membranes of transfected HEK293 cells, 3H-nisoxetine; read-out: Ki hNET
T7 construct: expressed in transfected cells; host or cells: HEK293 (membrane stocks)
Experimental: as §2

T1 sequence (P31652 whole entry): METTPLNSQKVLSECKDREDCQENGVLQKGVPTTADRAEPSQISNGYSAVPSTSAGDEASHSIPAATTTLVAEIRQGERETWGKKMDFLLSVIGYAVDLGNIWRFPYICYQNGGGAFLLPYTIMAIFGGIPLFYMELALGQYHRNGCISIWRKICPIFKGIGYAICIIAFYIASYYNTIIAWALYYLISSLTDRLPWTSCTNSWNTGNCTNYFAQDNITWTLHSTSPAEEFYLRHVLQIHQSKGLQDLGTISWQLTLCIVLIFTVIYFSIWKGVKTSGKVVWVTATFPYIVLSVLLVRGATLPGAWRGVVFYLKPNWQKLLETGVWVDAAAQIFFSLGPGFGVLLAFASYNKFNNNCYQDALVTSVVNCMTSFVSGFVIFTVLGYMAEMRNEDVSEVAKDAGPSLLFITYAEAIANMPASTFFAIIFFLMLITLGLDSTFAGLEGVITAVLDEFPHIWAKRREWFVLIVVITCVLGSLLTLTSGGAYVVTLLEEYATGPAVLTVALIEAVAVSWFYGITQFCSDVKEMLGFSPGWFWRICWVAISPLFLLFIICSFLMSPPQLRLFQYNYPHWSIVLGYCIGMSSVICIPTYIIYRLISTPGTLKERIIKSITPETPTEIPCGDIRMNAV
T2 sequence (Q63380 1-617): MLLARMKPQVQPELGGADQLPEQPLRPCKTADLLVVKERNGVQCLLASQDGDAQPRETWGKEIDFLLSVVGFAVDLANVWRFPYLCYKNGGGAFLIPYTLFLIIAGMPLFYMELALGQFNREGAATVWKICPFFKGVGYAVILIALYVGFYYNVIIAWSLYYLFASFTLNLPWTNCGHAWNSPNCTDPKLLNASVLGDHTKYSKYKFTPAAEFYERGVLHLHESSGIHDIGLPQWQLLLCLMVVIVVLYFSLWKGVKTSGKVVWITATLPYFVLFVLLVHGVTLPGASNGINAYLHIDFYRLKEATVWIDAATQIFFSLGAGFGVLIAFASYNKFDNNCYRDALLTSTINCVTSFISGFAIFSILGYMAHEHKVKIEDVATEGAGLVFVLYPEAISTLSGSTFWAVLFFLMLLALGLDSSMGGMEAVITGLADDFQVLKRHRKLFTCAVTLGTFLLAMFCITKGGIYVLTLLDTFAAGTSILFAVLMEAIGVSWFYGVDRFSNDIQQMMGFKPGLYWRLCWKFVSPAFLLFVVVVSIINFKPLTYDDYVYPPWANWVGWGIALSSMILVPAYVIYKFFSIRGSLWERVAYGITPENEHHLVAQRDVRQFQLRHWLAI
T6 sequence (Q01959 whole entry): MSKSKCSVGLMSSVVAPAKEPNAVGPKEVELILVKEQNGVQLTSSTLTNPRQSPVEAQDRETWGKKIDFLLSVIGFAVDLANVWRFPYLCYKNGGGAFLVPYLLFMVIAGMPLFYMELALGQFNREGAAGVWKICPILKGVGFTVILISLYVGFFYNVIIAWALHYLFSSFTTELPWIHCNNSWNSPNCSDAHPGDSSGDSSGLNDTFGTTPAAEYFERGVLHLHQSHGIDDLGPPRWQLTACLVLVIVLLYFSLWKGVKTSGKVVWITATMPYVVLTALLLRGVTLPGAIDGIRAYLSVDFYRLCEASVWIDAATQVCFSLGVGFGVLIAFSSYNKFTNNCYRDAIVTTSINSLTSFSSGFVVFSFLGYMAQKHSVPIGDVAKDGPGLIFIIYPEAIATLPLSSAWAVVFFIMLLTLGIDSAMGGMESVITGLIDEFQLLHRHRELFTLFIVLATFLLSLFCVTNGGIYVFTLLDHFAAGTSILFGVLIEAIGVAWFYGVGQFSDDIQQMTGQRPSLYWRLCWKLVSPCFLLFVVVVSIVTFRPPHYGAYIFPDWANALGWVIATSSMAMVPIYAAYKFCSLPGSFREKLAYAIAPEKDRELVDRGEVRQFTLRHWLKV
T7 sequence (P23975 whole entry): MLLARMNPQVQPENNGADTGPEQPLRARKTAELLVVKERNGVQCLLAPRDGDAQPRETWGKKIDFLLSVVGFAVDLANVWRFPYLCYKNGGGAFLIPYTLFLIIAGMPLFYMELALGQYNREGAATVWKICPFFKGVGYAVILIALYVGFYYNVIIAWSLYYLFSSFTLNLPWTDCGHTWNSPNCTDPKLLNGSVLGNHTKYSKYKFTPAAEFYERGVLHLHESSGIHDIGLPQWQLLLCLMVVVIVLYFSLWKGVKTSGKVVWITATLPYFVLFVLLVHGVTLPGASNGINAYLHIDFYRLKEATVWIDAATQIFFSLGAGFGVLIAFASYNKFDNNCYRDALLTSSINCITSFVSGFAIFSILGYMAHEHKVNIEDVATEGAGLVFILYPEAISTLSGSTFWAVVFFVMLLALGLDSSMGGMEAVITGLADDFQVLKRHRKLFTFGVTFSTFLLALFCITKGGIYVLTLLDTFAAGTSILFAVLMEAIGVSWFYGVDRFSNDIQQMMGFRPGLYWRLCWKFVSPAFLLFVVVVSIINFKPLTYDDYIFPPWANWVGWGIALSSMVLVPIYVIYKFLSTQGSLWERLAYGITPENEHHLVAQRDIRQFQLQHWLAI
T3 sequence (P23975 whole entry): as above
T5 sequence (P31645 whole entry): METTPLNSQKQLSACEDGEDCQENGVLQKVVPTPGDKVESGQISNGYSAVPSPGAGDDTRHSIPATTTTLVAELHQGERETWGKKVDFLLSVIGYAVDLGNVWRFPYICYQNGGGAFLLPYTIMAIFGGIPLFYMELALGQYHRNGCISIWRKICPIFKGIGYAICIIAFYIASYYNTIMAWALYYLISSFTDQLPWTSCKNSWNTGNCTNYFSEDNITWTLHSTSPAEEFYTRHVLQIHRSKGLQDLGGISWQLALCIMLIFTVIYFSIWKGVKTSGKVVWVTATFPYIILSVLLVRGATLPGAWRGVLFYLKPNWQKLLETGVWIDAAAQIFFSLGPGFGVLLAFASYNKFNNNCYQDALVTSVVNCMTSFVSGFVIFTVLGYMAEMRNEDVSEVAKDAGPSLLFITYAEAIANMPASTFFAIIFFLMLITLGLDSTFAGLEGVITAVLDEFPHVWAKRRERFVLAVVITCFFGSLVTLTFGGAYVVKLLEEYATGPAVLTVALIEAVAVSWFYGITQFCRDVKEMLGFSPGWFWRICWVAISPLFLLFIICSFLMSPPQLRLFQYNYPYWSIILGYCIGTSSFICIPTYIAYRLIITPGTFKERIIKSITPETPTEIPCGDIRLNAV
T4 sequence (P31645 whole entry): as above

Which receptor occupancy at 0.3 mg/kg (serotonin transporter; po, rat frontal cortex, 0.3 mg/kg p.o.) does the source give for `COc1ccc(O[C@@H](CC(C)C)[C@H]2CCNC2)c(C)n1.O=C(O)C(O)C(O)C(=O)O` [EXAMPLE 19, (3S)-3-(1-(6-methoxy-2-methyl-3-pyridyloxy)-3-methyl-butyl)-pyrrolidine, L-tartrate (S-2)] here?
Its receptor occupancy at 0.3 mg/kg is 5.9%.

And the receptor occupancy at 1 mg/kg (serotonin transporter; po, rat frontal cortex, 1 mg/kg p.o.)?
Its receptor occupancy at 1 mg/kg is 25%.

What about the receptor occupancy at 3 mg/kg (serotonin transporter; po, rat frontal cortex, 3 mg/kg p.o.) of the same molecule?
Its receptor occupancy at 3 mg/kg is 43.3%.

What about the receptor occupancy at 10 mg/kg (serotonin transporter; po, rat frontal cortex, 10 mg/kg p.o.) of the same molecule?
The receptor occupancy at 10 mg/kg was 94%.

And the receptor occupancy at 30 mg/kg (serotonin transporter; po, rat frontal cortex, 30 mg/kg p.o.)?
The receptor occupancy at 30 mg/kg was 106%.

What about the “absolute ED80 (serotonin transporter occupancy)” value (serotonin transporter; rat, p.o.) of the same molecule?
Its value is 7.1 mg/kg.

And the inhibition at 3 mg/kg ([1]; po, 3 mg/kg p.o., read-out: % Inhibition (α-MMT induced depletion of norepinephrine))?
The inhibition at 3 mg/kg was 21%.

What about the inhibition at 10 mg/kg ([1]; po, 10 mg/kg p.o., read-out: % Inhibition (α-MMT induced depletion of norepinephrine)) of the same molecule?
Its inhibition at 10 mg/kg is 79%.

What about the inhibition at 30 mg/kg ([1]; po, 30 mg/kg p.o., read-out: % Inhibition (α-MMT induced depletion of norepinephrine)) of the same molecule?
The inhibition at 30 mg/kg was 115%.

And the “% Inhibition (α-MMT induced depletion of norepinephrine)” value ([1]; 0.3 mg/kg p.o.)?
The value was 7.0%.

And the “% Inhibition (α-MMT induced depletion of norepinephrine)” value ([1]; 1 mg/kg p.o.)?
The value was 5.6%.

And the IC50 [2]?
The IC50 was 7.34 ± 1.48 nM.

What about the Ki [3] of the same molecule?
Its Ki is 0.199 ± 0.02 nM.

And the IC50 [4]?
The IC50 was 2.15 ± 0.7 nM.

And the ED50 (Formalin induced pain; po, p.o., read-out: ED50 (reduction of pain behavior))?
The ED50 was 13.4 mg/kg.

What about the “% reduction in total time licking” value (Formalin induced pain; 1 mg/kg p.o.) of the same molecule?
The value was 4.5%.

What about the “% reduction in total time licking” value (Formalin induced pain; 3 mg/kg p.o.) of the same molecule?
The value was 14.4%.

And the “% reduction in total time licking” value (Formalin induced pain; 10 mg/kg p.o.)?
Its value is 38.0%.

And the “% reduction in total time licking” value (Formalin induced pain; 30 mg/kg p.o.)?
Its value is 78.4%.

And the Ki [5]?
Its Ki is 461 ± 72 nM.

And the Ki [6]?
Its Ki is 1.08 ± 0.32 nM.
